Measured values from ChEMBL document CHEMBL5215006, “Antitumor Activity of Piceamycin by Upregulation of N-Myc Downstream-Regulated Gene 1 in Human Colorectal Cancer Cells” (J Nat Prod, 2022).
The source made the active and inactive calls. The calls are words filed in the database; no cut-off is given here.

Assays:
[1] = system: HCT-116; test: Antiproliferative activity against human HCT-116 cells assessed as cell growth inhibition incubated for 72 hrs by SRB assay; format: functional, cell-based; settings: HCT-116, 72 h
[2] = system: SW480; test: Antiproliferative activity against human SW480 cells assessed as cell growth inhibition incubated for 72 hrs by SRB assay; format: functional, cell-based; settings: SW480, 72 h
[3] = system: HCT-116; test: Inhibition of colony formation in human HCT-116 cells at 0.075 to 0.3 uM incubated for 72 hrs by crystal violet staining based assay; format: functional, cell-based; settings: dose 0.075-0.3 µM, DDE = dose-dependent effect
[4] = system: HCT-116; test: Antitumor activity against human HCT-116 cells assessed as upregulation of NDRG1 protein expression at 0.075 to 0.3 uM incubated for 24 hrs by immunoblotting assay; format: functional, cell-based; settings: dose 0.075-0.3 µM, DDE = dose-dependent effect
[5] = system: HCT-116; test: Antitumor activity against human HCT-116 cells assessed as upregulation of NDRG1 gene expression at 0.075 to 0.3 uM incubated for 24 hrs by RT-PCR method; format: functional, cell-based; settings: dose 0.075-0.3 µM, DDE = dose-dependent effect
[6] = system: HCT-116; test: Cell cycle arrest in human HCT-116 cells assessed as accumulation at Sub-G1 phase at 0.15 uM incubated for 24 hrs by RNaseA/propidium iodide staining based flow cytometry (reference value: 3.66 %); format: functional
[7] = system: HCT-116; test: Cell cycle arrest in human HCT-116 cells assessed as accumulation at G0/G1 phase at 0.15 uM incubated for 24 hrs by RNaseA/propidium iodide staining based flow cytometry (reference value: 48.44 %); format: functional
[8] = system: HCT-116; test: Cell cycle arrest in human HCT-116 cells assessed as accumulation at S phase at 0.15 uM incubated for 24 hrs by RNaseA/propidium iodide staining based flow cytometry (reference value: 19.94 %); format: functional
[9] = system: SW480; test: Cell cycle arrest in human SW480 cells assessed as accumulation at S phase at 0.35 uM incubated for 24 hrs by RNaseA/propidium iodide staining based flow cytometry (reference value: 16.7 %); format: functional
[10] = system: SW480; test: Cell cycle arrest in human SW480 cells assessed as accumulation at Sub-G1 phase at 0.7 uM incubated for 24 hrs by RNaseA/propidium iodide staining based flow cytometry (reference value: 3.2 %); format: functional
[11] = system: SW480; test: Cell cycle arrest in human SW480 cells assessed as downregulation of CDK4 protein expression at 0.35 to 1.4 uM incubated for 24 hrs by immunoblotting assay; format: functional, cell-based; settings: dose 0.35-1.4 µM
[12] = system: HCT-116; test: Cell cycle arrest in human HCT-116 cells assessed as accumulation at G0/G1 phase at 0.3 uM incubated upto 48 hrs by RNaseA/propidium iodide staining based flow cytometry; format: functional
[13] = system: HCT-116; test: Induction of apoptosis in human HCT-116 cells assessed as upregulation of cleaved caspase-8 expression at 0.3 uM measured at 12 to 48 hrs by immunoblotting assay; format: functional, cell-based; settings: time 12-48 hrs, TDE = time-dependent effect
[14] = system: HCT-116; test: Induction of apoptosis in human HCT-116 cells assessed as downregulation of survivin expression at 0.3 uM measured at 12 to 48 hrs by immunoblotting assay; format: functional, cell-based; settings: time 12-48 hrs, TDE = time-dependent effect
[15] = system: HCT-116; test: Induction of apoptosis in human HCT-116 cells assessed as viable cells at 0.075 uM incubated for 48 hrs by Annexin V-FITC/PI staining based flow cytometry analysis (Rvb= 94.18%); format: functional; settings: read-out: Activity
[16] = system: HCT-116; test: Induction of apoptosis in human HCT-116 cells assessed as early apoptotic cells at 0.15 uM incubated for 48 hrs by Annexin V-FITC/PI staining based flow cytometry analysis (Rvb= 2.51%); format: functional
[17] = system: HCT-116; test: Induction of apoptosis in human HCT-116 cells assessed as necrotic cells at 0.15 uM incubated for 48 hrs by Annexin V-FITC/PI staining based flow cytometry analysis (Rvb= 0.13%); format: functional
[18] = system: HCT-116; test: Induction of apoptosis in human HCT-116 cells assessed as early apoptotic cells at 0.3 uM incubated for 48 hrs by Annexin V-FITC/PI staining based flow cytometry analysis (Rvb= 2.51%); format: functional
[19] = system: HCT-116; test: Induction of apoptosis in human HCT-116 cells assessed as late apoptotic cells at 0.3 uM incubated for 48 hrs by Annexin V-FITC/PI staining based flow cytometry analysis (Rvb= 3.18%); format: functional
[20] = system: SW480; test: Induction of apoptosis in human SW480 cells assessed as viable cells at 0.35 uM incubated for 48 hrs by Annexin V-FITC/PI staining based flow cytometry analysis (Rvb= 92.6%); format: functional; settings: read-out: Activity
[21] = system: HCT-116; test: Upregulation of cyclin-D1 protein expression in human HCT-116 cells with NDRG1 knockdown at 0.3 uM incubated for 24 hrs by immunoblotting assay; format: functional, cell-based
[22] = system: SW480; test: Induction of apoptosis in human SW480 cells assessed as late apoptotic cells at 1.4 uM incubated for 48 hrs by Annexin V-FITC/PI staining based flow cytometry analysis (Rvb= 5.26%); format: functional
[23] = system: HCT-116; test: Induction of apoptosis in human HCT-116 cells assessed as upregulation of cleaved caspase-9 expression at 0.3 uM measured after 48 hrs by immunoblotting assay; format: functional, cell-based
[24] = system: HCT-116; test: Inhibition of cell migration in human HCT-116 cells at 0.075 to 0.3 uM incubated for 24 hrs by wound-healing assay; format: functional, cell-based; settings: dose 0.075-0.3 µM, DDE = dose-dependent effect
[25] = system: HCT-116; test: Anti-migratory activity against human HCT-116 cells assessed as upregulation of E-cadherin gene expression at 0.075 to 0.3 uM incubated for 24 hrs by RT-PCR assay; format: functional, cell-based; settings: dose 0.075-0.3 µM
[26] = system: SW480; test: Anti-migratory activity against human SW480 cells assessed as downregulation of Snail gene expression at 0.35 to 1.4 uM incubated for 24 hrs by RT-PCR assay; format: functional, cell-based; settings: dose 0.35-1.4 µM
[27] = system: HCT-116; test: Anti-migratory activity against highly liver metastatic human HCT-116 cells assessed as reduction in migration to 0.075 to 0.3 uM incubated for 24 hrs by wound healing assay; format: functional, cell-based; settings: dose 0.075-0.3 µM, DDE = dose-dependent effect
[28] = system: HCT-116; test: Antimigratory activity against highly liver metastatic human HCT-116 cells assessed as downregulation of N-cadherin protein expression at 0.075 to 0.3 uM incubated for 24 hrs by immunoblotting assay; format: functional, cell-based; settings: dose 0.075-0.3 µM
[29] = system: HCT-116; test: Antimigratory activity against highly liver metastatic human HCT-116 cells assessed as downregulation of Snail protein expression at 0.075 to 0.3 uM incubated for 24 hrs by immunoblotting assay; format: functional, cell-based; settings: dose 0.075-0.3 µM
[30] = system: HCT-116; test: Antimigratory activity against highly liver metastatic human HCT-116 cells assessed as downregulation of Snail gene expression at 0.075 to 0.3 uM incubated for 24 hrs by RT-PCR method; format: functional, cell-based; settings: dose 0.075-0.3 µM
[31] = system: HCT-116; test: Downregulation of cleaved PARP protein expression in human HCT-116 cells with NDRG1 knockdown at 0.3 uM incubated for 24 hrs by immunoblotting assay; format: functional, cell-based
[32] = system: HCT-116; test: Antitumor activity against human HCT-116 cells xenografted Balb/c mouse assessed as reduction in tumor growth at 1 mg/kg,ip administrated for 18 days by 3 times per week; format: functional; design: scale not given: the % may be the effect or the level left; settings: time 18 day
[33] = system: HCT-116; test: Antitumor activity against human HCT-116 cells xenografted Balb/c mouse assessed as reduction in tumor growth at 3 mg/kg,ip administrated for 18 days by 3 times per week; format: functional; design: scale not given: the % may be the effect or the level left; settings: time 18 day
[34] = system: HCT-116; test: Antitumor activity against human HCT-116 cells xenografted Balb/c mouse assessed as increase in NDRG1 protein expression at 3 mg/kg,ip administrated for 18 days by 3 times per week by immunoblotting assay; format: functional, organism-based; settings: time 18.0 day

**Q.** For C[C@@H]1\C=C/C=C/C=C\C=C\C=C\C(=O)C2=C(O)C(=O)C[C@@]2(C)/C=C/C=C\C=C/C(=O)NC1, which IC50 [1] is on record?
**A.** 0.14 µM

**Q.** What about the IC50 [2] of the same compound?
**A.** 0.65 µM

**Q.** And the inhibition [3]?
**A.** Dde

**Q.** What about the Activity [4] of the same compound?
**A.** Dde

**Q.** What about the Activity [5] of the same compound?
**A.** Dde

**Q.** And the Activity [6]?
**A.** 5.1%

**Q.** What about the Activity [7] of the same compound?
**A.** 55.55%

**Q.** And the Activity [8]?
**A.** 11.41%

**Q.** And the Activity [9]?
**A.** 15.86%

**Q.** What about the Activity [10] of the same compound?
**A.** 4.68%

**Q.** And the Activity [11]?
**A.** Active

**Q.** What about the Activity [12] of the same compound?
**A.** Active

**Q.** What about the Activity [13] of the same compound?
**A.** Tde

**Q.** What about the Activity [14] of the same compound?
**A.** Tde

**Q.** And the viability at 0.075 µM [15]?
**A.** 84.8%

**Q.** What about the Activity [16] of the same compound?
**A.** 15.66%

**Q.** And the Activity [17]?
**A.** 0.18%

**Q.** And the Activity [18]?
**A.** 44.79%

**Q.** And the Activity [19]?
**A.** 14.94%

**Q.** What about the viability at 0.35 µM [20] of the same compound?
**A.** 93%

**Q.** What about the Activity [21] of the same compound?
**A.** Active

**Q.** What about the Activity [22] of the same compound?
**A.** 44.51%

**Q.** What about the Activity [23] of the same compound?
**A.** Active

**Q.** And the inhibition [24]?
**A.** Dde

**Q.** And the Activity [25]?
**A.** Active

**Q.** And the Activity [26]?
**A.** Active

**Q.** And the Activity [27]?
**A.** Dde

**Q.** What about the Activity [28] of the same compound?
**A.** Active

**Q.** What about the Activity [29] of the same compound?
**A.** Active

**Q.** And the Activity [30]?
**A.** Active

**Q.** What about the Activity [31] of the same compound?
**A.** Active

**Q.** What about the Activity [32] of the same compound?
**A.** 67%

**Q.** And the Activity [33]?
**A.** 89%

**Q.** What about the Activity [34] of the same compound?
**A.** Active
